From patent US20100028334A1, “COMPOSITIONS AND METHODS TO POTENTIATE COLISTIN ACTIVITY” (TRUSTEES OF BOSTON UNIVERSITY, priority 2006, published 2010)

Experiments:
E. coli = assay: minimum inhibitory concentration (MIC) assay of colistin with mefloquine; format: cell-based
Description: The efficacy of colistin in inhibiting the growth and/or suppressing survival of E. coli in the presence of one inhibitor, mefloquine was assessed in a minimum inhibitory concentration (MIC) assay.

gram-positive bacteria = format: cell-based; conditions: used concurrently with colistin; data not shown
[1] = biological target: Escherichia coli H+-ATP synthase (Escherichia coli, UniProt P0AB98+P68699); conditions: cited from earlier work
[2] = test system: wild-type, BW25113 E. coli cells; assay: colony formation unit (CFU) assay, parent strain; format: cell-based
Description: (§1) The cells were incubated with colistin at a final concentration of 1.25 ug/ml. […] 10 ul of cells were plated onto LB agar [no colistin] plates. Number of colonies were counted after overnight incubation at 37 C. Colony count was normalized to get the same starting amount of cells for all strains. […] Log change in colony forming units per ml (CFU/ml) of wild-type, BW25113 E. coli cells (mean±s.d.) in presence or absence of colistin and potassium tellurite. Cell were grown in the absence or presence of colistin (1.25 ug/ml), potassium tellurite (1.6 ug/ml) alone and combined. […] Number of colonies were counted after overnight incubation at 37 C. Colony count was normalized to get the same starting amount of cells for all strains.
For CFU measurements, 50 μl of stationary phase culture was inoculated into 5 ml of LB. 240 or 245 μl of the freshly diluted cells were placed into wells of a 96 well plate (Costar), 5 μl of colistin and or potassium tellurite were added into each well to obtain a final volume of 250 μl. The 96 well plates were then incubated at 37° C. At the 0, 3 and 6 hours time points, 20 μl of culture was collected and then serially diluted in 180 μl of 1×PBS, pH 7.2 (Fisher). A 10 μl portion of each dilution was plated onto LB agar (Fisher)), and the plate was incubated overnight at 37° C. Dilutions that yielded between 20 and 100 colonies were counted and CFU were normalized to reflect the same amount of cells for the starting cultures.
The cells were grown with or without colistin, aliquots were taken at defined time points and serial dilution of the cells plated, colony count allowed to quantify the bactericidal effect of colistin. We noticed that the iscS and ubiH mutants were slow growers and formed small size colonies compared to the parent strain.

iscS mutant = conditions: Rojas and Vasquez, 2005; cited from earlier work
P aeruginosa = conditions: recent studies; cited from earlier work
[3] = after intravenous administration of colistimethate (sodium); cited from earlier work
[4] = cited from earlier work
[5] = test system: ubiH and iscS mutant E. coli cells; assay: colony formation unit (CFU) assay, deletion mutants; format: cell-based; conditions: colistin 1.25 ug/ml, FIG. 5A
Description: as §1
For CFU measurements, 50 μl of stationary phase culture was inoculated into 5 ml of LB. 240 or 245 μl of the freshly diluted cells were placed into wells of a 96 well plate (Costar), 5 μl of colistin and or potassium tellurite were added into each well to obtain a final volume of 250 μl. […] Dilutions that yielded between 20 and 100 colonies were counted and CFU were normalized to reflect the same amount of cells for the starting cultures.
The cells were grown with or without colistin, aliquots were taken at defined time points and serial dilution of the cells plated, colony count allowed to quantify the bactericidal effect of colistin. […]

OC(c1cc(C(F)(F)F)nc2c(C(F)(F)F)cccc12)C1CCCCN1 (stereo not shown) [mefloquine]
potentiation of colistin efficacy by mefloquine (E. coli; mefloquine at concentrations above 50 μg/ml or greater): dose-dependent potentiation of colistin efficacy | potentiation of colistin against gram-positive bacteria (gram-positive bacteria): potentiates colistin ability to decrease gram-positive bacteria

CC[C@H]1/C=C/C=C/C[C@@H](C)[C@H](O)[C@@](C)(O)C(=O)[C@@H](C)[C@H](O)[C@@H](C)C(=O)[C@@H](C)[C@H](O)[C@@H](C)/C=C/C(=O)O[C@@H]2[C@H](C)[C@H](CC1)O[C@]1(CC[C@H](C)[C@H](C[C@@H](C)O)O1)[C@H]2C [oligomycin]
inhibition of ATP-driven proton transport and ATP hydrolysis [1]: weakly inhibited

O=[Te]([O-])[O-].[K+].[K+] [potassium tellurite]
effect on CFU ([2]; potassium tellurite 1.6 ug/ml, 3 hour time point): not or little affecting the CFU | growth inhibition ([2]; potassium tellurite 1.6 ug/ml, 6 hours): stronger growth inhibition | sensitivity of iscS mutant (iscS mutant): sensitive

colistimethate
antibacterial activity (P aeruginosa): non-active prodrug of colistin | plasma half-lives relative to those of the colistin generated [3]: approximately half

colistin
viability of parent strain compared to non treated cells ([2]; colistin 1.25 ug/ml, 3 and 5 hour time points, FIG. 5A): no significant decrease in viability | viability (CFU) compared to non treated cells ([2]; colistin 1.25 ug/ml, 3 hour time point, FIG. 5B): no significant decrease in viability | viability (CFU) ([2]; colistin 1.25 ug/ml, 5 hour time point, FIG. 5B): decrease in viability | MIC of colistin (E. coli; in the absence of mefloquine): 6.3 µg/mL | MIC of colistin required to suppress growth (E. coli; in the presence of 50 μg/ml of mefloquine): 6.3 µg/mL | MIC of colistin required to suppress growth (E. coli; in the presence of 100 μg/ml of mefloquine): 3.1 µg/mL | MIC of colistin required to suppress growth (E. coli; in the presence of 200 μg/ml of mefloquine): 0.8 µg/mL | stability in human plasma [4]: more stable than colistimethate | colony detection ([5]; 5 hour time point): almost no colony detection | viability of mutants when exposed to colistin [5]: significant decrease in viability

venturicidin
inhibition of ATP-driven proton transport and ATP hydrolysis [1]: strongly inhibited
